Measurements reported in paper PMC10470519, “CryoEM analysis of the essential native UDP-glucose pyrophosphorylase from Aspergillus nidulans reveals key conformations for activity regulation and function” (mBio, 2023).

Assays:
[1] = molecular target: T1, AnUGP (Aspergillus nidulans, UniProt C8VK50); assay: malachite green phosphate assay coupled to inorganic pyrophosphatase; type: biochemical; conditions: 0.25 mM UTP, 0.25 mM Glc-1-P, 2 mM MgCl2, 100 mM NaCl, 50 mM Tris-HCl pH 7.5, 30 °C
T1 construct: gene ANIA_09148; homooctamer
T1 sequence (C8VK50 1-514): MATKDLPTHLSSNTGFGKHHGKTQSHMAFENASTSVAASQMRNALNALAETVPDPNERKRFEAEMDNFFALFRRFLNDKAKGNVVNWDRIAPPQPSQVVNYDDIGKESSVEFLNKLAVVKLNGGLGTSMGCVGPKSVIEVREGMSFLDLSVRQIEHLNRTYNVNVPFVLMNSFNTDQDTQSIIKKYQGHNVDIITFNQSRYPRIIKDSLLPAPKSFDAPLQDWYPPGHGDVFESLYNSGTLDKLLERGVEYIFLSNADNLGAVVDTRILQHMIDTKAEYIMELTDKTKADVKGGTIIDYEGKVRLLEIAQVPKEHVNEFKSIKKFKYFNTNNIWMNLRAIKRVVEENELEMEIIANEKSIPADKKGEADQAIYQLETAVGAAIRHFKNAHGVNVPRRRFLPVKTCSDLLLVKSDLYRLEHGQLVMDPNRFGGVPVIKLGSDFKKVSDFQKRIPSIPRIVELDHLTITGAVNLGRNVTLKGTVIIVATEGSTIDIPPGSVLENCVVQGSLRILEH

[2] = molecular target: UDP-glucose pyrophosphorylase from Aspergillus nidulans (Aspergillus nidulans); assay: SEC; Superose 6 GL 10/300 in buffer A (50 mM Tris, 200 mM NaCl, 2 mM β-mercaptoethanol, pH 7.8); peak around 14.5 mL
[3] = molecular target: UDP-glucose pyrophosphorylase from Aspergillus nidulans (Aspergillus nidulans); assay: cryo-EM structure; native AnUGP in buffer A at 0.18 mg/mL, vitrified on Quantifoil R1.2/1.3 grids; Titan Krios 300 kV; C1, D4 and locally refined maps; 3D variability analysis

| stoichiometry N [2] | stoichiometry N [3] | Compound | malachite green phosphate assay coupled to inorganic pyrophosphatase [1] |
| --- | --- | --- | --- |
| – | – | O=c1ccn([C@@H]2O[C@H](COP(=O)(O)OP(=O)(O)OP(=O)(O)O)[C@@H](O)[C@H]2O)c(=O)[nH]1 [UTP] | the enzyme was specific for UTP and unable to use ATP or GTP |
| 8 | 8 | UDP-glucose pyrophosphorylase from Aspergillus nidulans (enzyme) | – |
| – | – | O=P(O)(O)O[C@H]1O[C@H](CO)[C@@H](O)[C@H](O)[C@H]1O [Glc-1-P] | AnUGP catalyzes the condensation reaction between UTP and Glc-1-P to produce UDP-Glc and PPi |
